# Test system: tyrosinase
# Assay: tyrosinase activity, colorimetric reaction with L-DOPA substrate (absorbance 475 nm)
# Assay type: biochemical
# Description: The aim of this test is to model the activity of an enzyme, tyrosinase (the enzyme responsible for melanin formation) using an experimental design and to determine the influence of flavanol monomers and ε-viniferin on enzymatic activity with respect to a specific substrate (L-DOPA). Tyrosinase activity was measured in vitro using a colorimetric reaction. Under the action of tyrosinase, L-DOPA is oxidized and converted into dopaquinone. The formation of dopaquinone can thus be monitored by spectrometry at 475 nm.
# In a 96-well plate, the following amounts were deposited in each well: 80 μl phosphate buffer (50 mM), 40 μl of sample to be tested or buffer, 40 μl of tyrosinase at 125 U/ml. At the last moment, 40 μl of L-DOPA (2.5 mM) was added to initiate the reaction and then absorbance at 475 nm was monitored for 25 min.
# For each well, the absorbance values over time (Ax) are normalized relative to the first absorbance measurement (AT0) according to the following formula: Normalized absorbance (An)=Ax−AT0. The normalized absorbances are then corrected (for each time) according to the following formula: Corrected normalized absorbance (Anc)=An−ACLT, where ACLT is the value of the normalized absorbance of the reagents in the presence of the sample (buffer+tyrosinase+sample). […]
# To this end, tyrosinase activity was monitored and measured in vitro using the colorimetric reaction described above. […]
structure (smiles),measurement,setting,value
Oc1ccc(/C=C/c2cc(O)cc3c2[C@@H](c2cc(O)cc(O)c2)[C@H](c2ccc(O)cc2)O3)cc1 [ε-viniferin],effect on tyrosinase activity with respect to the L-DOPA substrate,"experimental design: flavanol monomers 1-50 μM, ε-viniferin 0.0050-0.05 μM, response at 7 min",no significant effect
same,Estimated Coefficient (coded factors) of the model of corrected normalized absorbance,"linear-quadratic model, central composite design, negative = reduces tyrosinase activity",−0.0045
